The text below walks through data of patent publication US20240368106A1, “HYDROXY AND ALKOXY COUMARINS AS MODULATORS OF POLRMT” (Pretzel Therapeutics, Inc., priority 2021, published 2024).

As a reminder, the IC50 is the concentration needed to halve the response being measured.

In the assay the target is POLRMT (Homo sapiens (Human), UniProt O00411). Description: homogeneous TR-FRET assay of mitochondrial transcription (inhibition of POLRMT). In kind it is biochemical. The settings on record: 7.5 nM POLRMT, 15 nM TFB2M, 30 nM TFAM, 0.5 nM DNA template, 500 μM NTPs, 37° C., 60 minutes. The procedure: The inhibitory activity of the compounds of the present invention against POLRMT were determined by assays based on Bergbrede, T., et al., “An adaptable high-throughput technology enabling the identification of specific transcription modulators,” SLAC Discov., 22, 378-386 (2017).
Sequence of POLRMT (O00411 42-1230): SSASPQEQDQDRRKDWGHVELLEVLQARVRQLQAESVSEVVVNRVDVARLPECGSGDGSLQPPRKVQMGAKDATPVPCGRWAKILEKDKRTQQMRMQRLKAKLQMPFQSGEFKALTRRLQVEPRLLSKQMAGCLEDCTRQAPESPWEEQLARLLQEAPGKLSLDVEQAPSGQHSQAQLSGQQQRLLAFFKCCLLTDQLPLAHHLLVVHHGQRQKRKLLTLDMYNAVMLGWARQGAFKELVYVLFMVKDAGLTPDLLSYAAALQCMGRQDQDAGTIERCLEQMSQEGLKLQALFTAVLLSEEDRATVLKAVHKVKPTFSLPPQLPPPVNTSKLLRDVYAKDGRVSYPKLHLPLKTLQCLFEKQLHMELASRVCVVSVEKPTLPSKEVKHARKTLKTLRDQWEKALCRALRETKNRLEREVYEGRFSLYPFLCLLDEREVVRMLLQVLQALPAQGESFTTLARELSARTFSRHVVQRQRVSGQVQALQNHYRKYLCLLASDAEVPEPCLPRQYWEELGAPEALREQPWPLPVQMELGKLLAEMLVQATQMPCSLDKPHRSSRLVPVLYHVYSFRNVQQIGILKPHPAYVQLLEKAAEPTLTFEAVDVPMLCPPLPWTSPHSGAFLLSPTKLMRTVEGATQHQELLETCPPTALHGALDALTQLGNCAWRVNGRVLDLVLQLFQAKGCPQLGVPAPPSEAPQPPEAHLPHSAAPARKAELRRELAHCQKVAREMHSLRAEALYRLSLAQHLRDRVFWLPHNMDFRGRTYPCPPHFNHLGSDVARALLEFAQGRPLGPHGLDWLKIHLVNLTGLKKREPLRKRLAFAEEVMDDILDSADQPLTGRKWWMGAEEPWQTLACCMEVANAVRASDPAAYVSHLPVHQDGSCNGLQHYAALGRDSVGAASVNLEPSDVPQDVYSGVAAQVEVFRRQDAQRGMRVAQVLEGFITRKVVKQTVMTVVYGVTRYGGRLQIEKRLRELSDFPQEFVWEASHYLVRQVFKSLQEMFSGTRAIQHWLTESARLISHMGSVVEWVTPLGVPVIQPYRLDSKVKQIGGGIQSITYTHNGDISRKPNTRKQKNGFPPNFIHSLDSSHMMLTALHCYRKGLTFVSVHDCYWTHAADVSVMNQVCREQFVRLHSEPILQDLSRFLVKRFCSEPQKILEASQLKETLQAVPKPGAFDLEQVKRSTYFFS
The ability of some compounds of the present invention to inhibit POLRMT were determined in a homogeneous TR-FRET Assay using high-throughput screening in a 384-well plate format. This method is used to monitor the activity of mitochondrial transcription through measurement of its product, a 407 bp long RNA transcript. Detection of the product is facilitated by hybridization of two DNA-oligonucleotide probes to specific and adjacent sequences within the RNA product sequence. Upon annealing of the probes, two fluorophores are coupled directly to an acceptor nucleotide probe (ATT0647, 5′), or introduced via a coupled streptavidin with a biotinylated donor nucleotide probe (Europium cryptate) that is brought into sufficient proximity to serve as a fluorescence-donor-acceptor pair. Thus, a FRET signal at 665 nm is generated upon excitation at 340 nm.
Proteins used as transcription factors (POLRMT: NP_005026.3, TFAM: NP_003192.1, TFB2M: NP_071761.1) are diluted from their stocks to working concentrations of 1 μM, 20 μM and 4 μM respectively, in a dilution buffer containing 20 mM Tris-HCl (pH 8.0), 200 mM NaCl, 10% (v/v) glycerol, 1 mM Dithiothreitol (DTT), 0.5 mM EDTA.
DNA template is a pUC18 plasmid with the mitochondrial light strand promotor sequence (1-477) cloned between HindIII and BamHI sites. The DNA template is restriction linearized proximal to the promotor 3′-end (pUC-LSP). The reaction mixture (10 uL) containing 7.5 nM POLRMT, 15 nM of TFB2M, 30 nM of TFAM, 0.5 nM of DNA template and 500 μM nucleotide triphosphate mix (NTPs) in a reaction buffer (containing 10 mM Tris-HCl (pH 7.5), 10 mM MgCl2, 40 mM NaCl, 10 mM DTT, 0.005% (w/v) Tween-20, 160 units/ml Rnase inhibitor and 0.1 mg/mL BSA) are dispensed to compounds in microplates, using a Thermo Multidrop® dispenser, and incubated at 37° C. in a VWR INCU-Line incubator for 60 minutes after mixing. No nucleotide triphosphate mix is added to negative control samples. Microplates with compounds to be tested in the assay are prepared from 10 mM compound stocks in 100% DMSO, equal amounts of DMSO without any compound are added to positive control and negative control samples.
During the incubation, a mix of the detection reagents is prepared in a buffer such that the enzymatic reaction is terminated due to chelating of Mg-ions and increased ionic strength, containing 50 mM Tris-HCl (pH 7.5), 700 mM NaCl, 20 mM EDTA, and 0.010% (w/v) Tween-20. Europium-streptavidin is pre-incubated with a 200-fold molar excess of a random sequence oligonucleotide to block unspecific binding of oligo, for two hours at ambient temperature in the dark. Afterwards, the blocked Europium-streptavidin is kept on ice until use.
At the end of the enzymatic reaction time, 5 μL detection oligo mix in the detection buffer is added, and assay plates are mixed and kept at ambient temperature for one hour, protected from light. The concentration of the Acceptor nucleotide oligo (e.g., ATTO647N-5′-[…]-3′) and Donor nucleotide oligo (e.g., bio-5′-AACACATCTCT(-bio)GCCAAACCCCA-bio-3′) in each assay well is 1 nM, and 3 nM, respectively.
After incubation with oligo mix, 5 μL of pre-blocked Europium-streptavidin reagent is dispensed to each assay well, assay plates are again mixed and kept at ambient temperature for one hour, protected from light.
The generated signal is measured with BMG Pherastar microtiter plate reader with a TRF light unit, using excitation at 340 nm, an integration time of 200 μs, and a delay time of 100 μs, before detection at 620 nm and 665 nm. The ratio of donor- and acceptor-fluorescence is used as a measure of the generated transcript product (i.e. enzymatic activity).
In general terms: TR-FRET usually uses a lanthanide donor and a delayed reading to cut background.
With “2-((4-(2-chloro-4-fluorophenyl)-2-oxo-2H-chromen-7-yl)oxy)-3-methoxypropanamide [Example 76]”, the IC50 turned out to be 44000 nM. In the case of “2-((4-(2-chloro-4-fluorophenyl)-2-oxo-2H-chromen-7-yl)oxy)-3-methoxypropanamide [Example 77]” it was 2000 nM; in that of `COCC(C)Oc1ccc2c(-c3ccccc3C)cc(=O)oc2c1` (racemic) [Example 25, 7-((1-methoxypropan-2-yl)oxy)-4-(o-tolyl)-2H-chromen-2-one], 300 nM. To `COCC(C)Oc1ccc2c(-c3ccccc3C)cc(=O)oc2c1` (single isomer, unassigned) [Example 26, 7-((1-methoxypropan-2-yl)oxy)-4-(o-tolyl)-2H-chromen-2-one] belongs 300 nM; to `COCC(C)Oc1ccc2c(-c3ccccc3C)cc(=O)oc2c1` (single isomer, unassigned) [Example 27, 7-((1-methoxypropan-2-yl)oxy)-4-(o-tolyl)-2H-chromen-2-one], 600 nM; to `Cc1ccccc1-c1cc(=O)oc2cc(OCC3CCCCO3)ccc12` (single isomer, unassigned) [Example 39, 7-((tetrahydro-2H-pyran-2-yl)methoxy)-4-(o-tolyl)-2H-chromen-2-one], 900 nM.

`Cc1ccccc1-c1cc(=O)oc2cc(OCC3CCCCO3)ccc12` (single isomer, unassigned) [Example 40, 7-((tetrahydro-2H-pyran-2-yl)methoxy)-4-(o-tolyl)-2H-chromen-2-one]: the IC50 came to 3000 nM. In the case of `Cc1ccccc1-c1cc(=O)oc2cc(OC(C)C#N)ccc12` (single isomer, unassigned) [Example 42, 2-((2-oxo-4-(o-tolyl)-2H-chromen-7-yl)oxy)propanenitrile] it was 50 nM; in that of `Cc1ccccc1-c1cc(=O)oc2cc(OC(C)C#N)ccc12` (single isomer, unassigned) [Example 43, 2-((2-oxo-4-(o-tolyl)-2H-chromen-7-yl)oxy)propanenitrile], 1000 nM; in that of `CCC(COC)Oc1ccc2c(-c3ccccc3C)cc(=O)oc2c1` (single isomer, unassigned) [Example 45, 7-((1-methoxybutan-2-yl)oxy)-4-(o-tolyl)-2H-chromen-2-one], 100 nM. In the case of `CCC(COC)Oc1ccc2c(-c3ccccc3C)cc(=O)oc2c1` (single isomer, unassigned) [Example 46, 7-((1-methoxybutan-2-yl)oxy)-4-(o-tolyl)-2H-chromen-2-one] it was 300 nM; in that of `Cc1ccccc1-c1cc(=O)oc2cc(OC3CCCOC3)ccc12` (single isomer, unassigned) [Example 48, 7-((tetrahydro-2H-pyran-3-yl)oxy)-4-(o-tolyl)-2H-chromen-2-one], 3000 nM. In the case of `Cc1ccccc1-c1cc(=O)oc2cc(OC3CCCOC3)ccc12` (single isomer, unassigned) [Example 49, 7-((tetrahydro-2H-pyran-3-yl)oxy)-4-(o-tolyl)-2H-chromen-2-one] it was 1000 nM; in that of `COCC(C)Oc1cc(C)c2c(-c3ccccc3C)cc(=O)oc2c1` (single isomer, unassigned) [Example 59, 7-((1-methoxypropan-2-yl)oxy)-5-methyl-4-(o-tolyl)-2H-chromen-2-one], 600 nM. `COCC(C)Oc1cc(C)c2c(-c3ccccc3C)cc(=O)oc2c1` (single isomer, unassigned) [Example 60, 7-((1-methoxypropan-2-yl)oxy)-5-methyl-4-(o-tolyl)-2H-chromen-2-one] showed an IC50 of 500 nM. In the case of `COCC(Oc1ccc2c(-c3ccc(F)cc3Cl)cc(=O)oc2c1)C(N)=O` (single isomer, unassigned) [Example 74, 2-((4-(2-chloro-4-fluorophenyl)-2-oxo-2H-chromen-7-yl)oxy)-3-methoxypropanamide] it was 13000 nM. To `COCC(Oc1ccc2c(-c3ccc(F)cc3Cl)cc(=O)oc2c1)C(N)=O` (single isomer, unassigned) [Example 75, 2-((4-(2-chloro-4-fluorophenyl)-2-oxo-2H-chromen-7-yl)oxy)-3-methoxypropanamide] belongs 2000 nM. `Cc1ccccc1-c1cc(=O)oc2cc(OC(CO)C(=O)N(C)C)ccc12` (single isomer, unassigned) [Example 78, 3-hydroxy-N,N-dimethyl-2-[4-(o-tolyl)-2-oxo-2H-chromen-7-yl]oxy-propanamide]: it took 500 nM to reach half-maximal inhibition (IC50). In the case of `Cc1ccccc1-c1cc(=O)oc2cc(OC(CO)C(=O)N(C)C)ccc12` (single isomer, unassigned) [Example 79, 3-hydroxy-N,N-dimethyl-2-[4-(o-tolyl)-2-oxo-2H-chromen-7-yl]oxy-propanamide] it was 32000 nM; in that of `CCNC(=O)C(COC)Oc1ccc2c(-c3ccccc3C)cc(=O)oc2c1` (single isomer, unassigned) [Example 80, N-ethyl-3-methoxy-2-((2-oxo-4-(o-tolyl)-2H-chromen-7-yl)oxy)propanamide], 15000 nM; in that of `CCNC(=O)C(COC)Oc1ccc2c(-c3ccccc3C)cc(=O)oc2c1` (single isomer, unassigned) [Example 81, N-ethyl-3-methoxy-2-((2-oxo-4-(o-tolyl)-2H-chromen-7-yl)oxy)propanamide], 200 nM. To `COCC(Oc1ccc2c(-c3ccccc3C)cc(=O)oc2c1)C(=O)NCC(F)(F)F` (single isomer, unassigned) [Example 82, 3-methoxy-2-((2-oxo-4-(o-tolyl)-2H-chromen-7-yl)oxy)-N-(2,2,2-trifluoroethyl)propanamide] belongs 5000 nM. In the case of `COCC(Oc1ccc2c(-c3ccccc3C)cc(=O)oc2c1)C(=O)NCC(F)(F)F` (single isomer, unassigned) [Example 83, 3-methoxy-2-((2-oxo-4-(o-tolyl)-2H-chromen-7-yl)oxy)-N-(2,2,2-trifluoroethyl)propanamide] it was 200 nM; in that of `COCC(Oc1ccc2c(-c3ccc(F)cc3Cl)cc(=O)oc2c1)C(=O)N(C)C` (single isomer, unassigned) [Example 85, 2-((4-(2-chloro-4-fluorophenyl)-2-oxo-2H-chromen-7-yl)oxy)-3-methoxy-N,N-dimethylpropanamide], 200 nM; in that of `COCC(Oc1ccc2c(-c3ccc(F)cc3Cl)cc(=O)oc2c1)C(=O)N(C)C` (single isomer, unassigned) [Example 86, 2-((4-(2-chloro-4-fluorophenyl)-2-oxo-2H-chromen-7-yl)oxy)-3-methoxy-N,N-dimethylpropanamide], > 100000 nM. `COCCNC(=O)C(COC)Oc1ccc2c(-c3ccccc3C)cc(=O)oc2c1` (single isomer, unassigned) [Example 87, 3-methoxy-N-(2-methoxyethyl)-2-((2-oxo-4-(o-tolyl)-2H-chromen-7-yl)oxy)propanamide]: the IC50 came out at 36000 nM.

`COCCNC(=O)C(COC)Oc1ccc2c(-c3ccccc3C)cc(=O)oc2c1` (single isomer, unassigned) [Example 88, 3-methoxy-N-(2-methoxyethyl)-2-((2-oxo-4-(o-tolyl)-2H-chromen-7-yl)oxy)propanamide] came in with an IC50 of 500 nM.
